Test results: US20230123334A1, “AMINO LIPID COMPOUND, PREPARATION METHOD THEREFOR, AND APPLICATION THEREOF” (SHENZHEN SHENXIN BIOTECHNOLOGY CO., LTD., priority 2020, published 2023)

Tests used:
Assay type in all cases: cell-based
Hela cells [1] = experiment: Transfection of Hela cell line, DNA vectors; details: 75 ng plasmid DNA, GFP cells / total cells
Outline: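 Amino lipid/DOPE liposomes in sodium acetate pH 5.6 were complexed with 75 ng psin-EGFP-IRES-Puro plasmid for 30 min at room temperature, then mixed with 3-5×10^4 Hela cells in DMEM/10% FBS at 37° C. Hoechst stain after 20-24 h, imaging after a further 20-24 h. Efficiency = GFP-positive cells / total nuclei.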

Hela cells [2] = experiment: Transfection of Hela cell line, mRNA vectors; details: 50 ng EGFP mRNA per well
Outline: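 HeLa cells in DMEM with 10% FBS transfected with 50 ng EGFP mRNA per well. Readout is percentage of GFP-positive cells among total cells counted by Hoechst nuclear stain; Lipofectamine2000 served as positive control.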

MCF7 cells [3] = experiment: Transfection of MCF7 cell line, DNA vectors; parameters: concentration or dose not given beside the values; details: plasmid DNA, GFP cells / total cells
Method: (§1) Cell line: MCF7 cells (ATCC HTB-22)
Medium DMEM supplemented with […] fetal bovine serum
(§2) Screening: cell transfection on 96-well plates
Detection (readout): percentage of the number of GFP fluorescent cells relative to the total number of cells (the total number of cells was determined using nucleus dye Hoechst). Lipofectamine2000 was used as the positive control, according to the manufacturer's instructions.
Method: the experimental method was basically the same with Example 4.

MCF7 cells [4] = experiment: Transfection of MCF7 cell line, mRNA vectors; details: 50 ng EGFP mRNA per well
Method: as §1
Medium: DMEM supplemented with 10 fetal bovine serum (Invitrogen)
as §2
Detection (readout): percentage of the number of GFP fluorescent cells relative to the total number of cells (the total number of cells was determined using nucleus dye Hoechst). Lipofectamine2000 (Invitrogen) was used as the positive control.
Method: the experimental method was basically the same with Example 4, and the mass of EGFP mRNA (TriLink) for transfection was 50 ng per well.

| SMILES | Absolute DNA transfection efficiency in Hela cells (Hela cells [1]) [%] | Absolute mRNA transfection efficiency in Hela cells (Hela cells [2]) [%] | Absolute DNA transfection efficiency in MCF7 cells (MCF7 cells [3]) [%] | Absolute mRNA transfection efficiency in MCF7 cells (MCF7 cells [4]) [%] |
| --- | --- | --- | --- | --- |
| CCCCCCCCCNc1nc(NCC2CCN(C)CC2)nc(SCCCCCCCCC)n1 [Compound S9N9D10] | 17.6 | 17.6 | 38.9 | 29.6 |
| CCCCCCCCCCCCNc1nc(NCCN2CCN(C)CC2)nc(SCCCCCCCC)n1 [Compound S8N12D5] | 20.8 | 20.8 | 29.2 | 19.7 |
| CCCCCCCCCCCCNc1nc(NCCCN2CCN(C)CC2)nc(SCCCCCCCC)n1 [Compound S8N12D9] | 24.4 | 24.1 | 32.0 | 16.4 |
| CCCCCCCCCCCSc1nc(NCCCN2CCN(C)CC2)nc(SCCCCCCC)n1 [Compound S7S11D9] | 12.9 | 12.9 | 44.5 | 3.6 |
| CCCCCCCCCCCCSc1nc(NCCCN2CCOCC2)nc(SCCCCCCC)n1 [Compound S7S12D8] | 5.4 | 5.4 | 11.5 | 24.0 |
| CCCCCCCCCCCSc1nc(NCCCCCCC)nc(NCCN2CCN(C)CC2)n1 [Compound S11N7D5] | 11.4 | 11.4 | 4.7 | 3.4 |
| CCCCCCCCCNc1nc(NCCCN2CCN(C)CC2)nc(SCCCCCCCCC)n1 [Compound S9N9D9] | 25.6 | 25.6 | 42.3 | 21.0 |
| CCCCCCCCCCCSc1nc(NCCCN(C)C)nc(SCCCCCCC)n1 [Compound S7S11D6] | 14.5 | 14.5 | 38.1 | 26.1 |
| CCCCCCCCCCCCNc1nc(NCC2CCN(C)CC2)nc(SCCCCCCCC)n1 [Compound S8N12D10] | 22.6 | 22.6 | 40.6 | 23.1 |
| CCCCCCCCCCCSc1nc(NCCCCCCC)nc(NCCCN(C)C)n1 [Compound S11N7D6] | 17.0 | 17.0 | 16.2 | 4.2 |
| CCCCCCCCCCCSc1nc(NCCN2CCCC2)nc(SCCCCCCC)n1 [Compound S7S11D3] | 4.8 | 4.8 | 6.4 | 6.7 |
| CCCCCCCCCCCSc1nc(NCCCCCCC)nc(NCC2CCN(C)CC2)n1 [Compound S11N7D10] | 14.7 | 14.7 | 10.1 | 9.0 |
| CCCCCCCCCNc1nc(NCCCN2CCOCC2)nc(SCCCCCCCCC)n1 [Compound S9N9D8] | 7.4 | 7.4 | 7.8 | 2.6 |
| CCCCCCCCCCCCSc1nc(NCC2CCN(C)CC2)nc(SCCCCCCC)n1 [Compound S7S12D10] | 10.6 | 10.6 | 44.7 | 47.5 |
| CCCCCCCCCNc1nc(NCCN2CCN(C)CC2)nc(SCCCCCCCCC)n1 [Compound S9N9D5] | 23.9 | 23.9 | 21.2 | 8.3 |
| CCCCCCCCCCCSc1nc(NCCN2CCN(C)CC2)nc(SCCCCCCC)n1 [Compound S7S11D5] | 16.8 | 16.8 | 23.3 | 16.5 |

| SMILES | Absolute DNA transfection efficiency in Hela cells (Hela cells [1]) [%] | Absolute mRNA transfection efficiency in Hela cells (Hela cells [2]) [%] | Absolute DNA transfection efficiency in MCF7 cells (MCF7 cells [3]) [%] | Absolute mRNA transfection efficiency in MCF7 cells (MCF7 cells [4]) [%] |
| --- | --- | --- | --- | --- |
| CCCCCCCCCCCCNc1nc(NCCN2CCCC2)nc(SCCCCCCCC)n1 [Compound S8N12D3] | 8.8 | 8.9 | 13.7 | 20.7 |
| CCCCCCCCCCCCCNc1nc(NCCCN2CCN(C)CC2)nc(SCCCCCCCC)n1 [Compound S8N13D9] | 13.9 | 13.4 | 25.8 | 13.3 |
| CCCCCCCCCCCCNc1nc(NCCCN2CCOCC2)nc(SCCCCCCCC)n1 [Compound S8N12D8] | 8.4 | 8.4 | 2.1 | 0.3 |
| CCCCCCCCCCCCNc1nc(NCCCN(C)C)nc(SCCCCCCCC)n1 [Compound S8N12D6] | 39.3 | 39.3 | 25.5 | 22.5 |
| CCCCCCCCCCCCSc1nc(NCCN2CCCC2)nc(SCCCCCCC)n1 [Compound S7S12D3] | 4.9 | 4.9 | 3.0 | 9.4 |
| CCCCCCCCCCCSc1nc(NCCCCCCC)nc(NCCCN2CCN(C)CC2)n1 [Compound S11N7D9] | 8.3 | 8.3 | 5.8 | 5.1 |
| CCCCCCCCCCCCSc1nc(NCCN2CCN(C)CC2)nc(SCCCCCCC)n1 [Compound S7S12D5] | 4.9 | 4.9 | 27.1 | 33.6 |
| CCCCCCCCCCCSc1nc(NCC2CCN(C)CC2)nc(SCCCCCCC)n1 [Compound S7S11D10] | 19.7 | 19.7 | 33.8 | 22.2 |
| CCCCCCCCCCCSc1nc(NCCCCCCC)nc(NCCN2CCCC2)n1 [Compound S11N7D3] | 9.8 | 9.8 | 4.4 | 5.8 |
| CCCCCCCCCCCCSc1nc(NCCCN2CCN(C)CC2)nc(SCCCCCCC)n1 [Compound S7S12D9] | 2.9 | 2.9 | 14.6 | 21.2 |
| CCCCCCCCCNc1nc(NCCN2CCCC2)nc(SCCCCCCCCC)n1 [Compound S9N9D3] | 27.4 | 27.4 | 8.6 | 12.1 |
| CCCCCCCCCCCCSc1nc(NCCCN(C)C)nc(SCCCCCCC)n1 [Compound S7S12D6] | 5.8 | 5.8 | 52.1 | 19.1 |
| CCCCCCCCCNc1nc(NCCCN(C)C)nc(SCCCCCCCCC)n1 [Compound S9N9D6] | 30.3 | 30.3 | 11.0 | 30.7 |
| CCCCCCCCCCCCCNc1nc(NCCCN(C)C)nc(SCCCCCCCC)n1 [Compound S8N13D6] | 27.6 | 27.6 | 32.2 | 33.4 |
| CCCCCCCCCCCCCNc1nc(NCCN2CCN(C)CC2)nc(SCCCCCCCC)n1 [Compound S8N13D5] | 14.7 | 14.7 | 24.5 | 9.2 |
